# Assays:
# [1] = tested on: MRD subpopulation gene signatures; assay: Analysis of available RNASeq data of melanoma patients on immunotherapy (Riaz et al. 2017); design: species or system human; details: patient subgroups SD+PD versus CR+PR; results not shown
# From the text: Although the therapy selecting for these 4 MRD-stage subpopulations as applied in the Examples herein relies on combined inhibition of BRAF and MEK kinases, it can be envisaged that other therapeutic modalities also give rise to the emergence of the same or some of these 4 MRD-stage subpopulations. […] Likewise, targeted therapies of cancers other than melanoma can lead to a MRD phase during which one or more of the MRD subpopulations as identified herein for melanoma are present. Such targeted therapies include e.g. anti-VEGF (bevacizumab), anti-EGFR (cetuximab, erlotinib), mTOR inhibition (everolimus), Tyr-kinase inhibitor/anti-EGFR (gefitinib), Tyr-kinase inhibition/BCR-ABL inhibition (imatinib), anti-HER2/anti-EGFR (lapatinib), and Tyr-kinase inhibition (sorafenib, sunitinib). On the one hand, as described above, different therapies targeting melanoma can be expected to induce all or part of the minimal residual disease tumor subpopulations as described herein. On the other hand, it can be envisaged that inhibition of the MAPK-pathway (with BRAF and/or MEK inhibitors) is inducing in cancers or tumors different from melanoma one or more minimal residual disease tumor subpopulations as described herein for melanoma.
# RAR = details: pan-RXR agonist; cited from earlier work
# wild-type cells (MM163) = assay: GFRA2 expression (RT-qPCR) in short-term melanoma culture; assay type: cell-based, human; details: triple wild-type culture exposed to both trametinib and bexarotene
# From the text: C) wild-type cells (MM163).
# [2] = tested on: NRAS-mutant cells (MM165); assay: as above; details: NRAS-mutant culture exposed to both trametinib and bexarotene
# From the text: Cells resuspended in QiAzol using an miRNeasy Kit and processed according to the manufacturer's instructions (QIAGEN) or in RA1lysis buffer using the RNA NucleoSpin extraction kit (Macherey&Nagel).
# Data processing with qbase+2.6 software (Biogazelle) relies on normalization with a minimum of 2 reference genes, indicated as RefGen below.
# MM052 melanoma cells = assay: Colony assay and Cell Titer Glo assay in short culture melanoma line
# Protocol: Cells were grown to near confluency on 12well plates and treated with the indicated drug combinations for the indicated time period.
# 2500 cells were plated onto a 96well plate and treated with the indicated drug combinations for the indicated time period. Cell Titer Glo assay was performed according to the manufacturer's instruction (Promega) and luminescence was measured on a VictorX3 (Perkin Elmer).
# [3] = tested on: GFRA2-positive MEL006 cells; assay: FACS of GFRA2-positive cells (NDTCs) in MEL006 cultures
# Protocol: Cells were resuspended in FACS sorting buffer (culture medium supplied with 1% EDTA 100 mM).
compound,measurement,setting,value
nivolumab: PD-1 inhibitor,induction of MRD subpopulations (trend),[1],induce at least the pigmented state and MITFmedium-hypometabolic state MRD subpopulations
CC1(C)CCC(C)(C)c2cc(C3(c4ccc(C(=O)O)cc4)OCCO3)ccc21 [SR 11237],RAR activity,RAR,devoid of any RAR activity
C=C(c1ccc(C(=O)O)cc1)c1cc2c(cc1C)C(C)(C)CCC2(C)C [bexarotene],GFRA2 expression levels,wild-type cells (MM163),increase
same,GFRA2 expression levels,[2],increase
same,effect on sensitivity to a combination of trametinib/FAK-inhibitors,MM052 melanoma cells; MM52 cells,increased the sensitivity
same,long-term growth inhibition,"MM052 melanoma cells; MM52 culture, compound alone",did not induce measurable long-term growth inhibition
same,cells in which cell death occurred,"MM052 melanoma cells; bexarotene with trametinib/FAK-inhibitors, after 3 days of treatment (data not shown)",~100%
same,effect on sensitivity of MM52 cells to trametinib,MM052 melanoma cells; concentrations as low as 10 nM,significantly decreased the sensitivity
CN(c1ncccc1CNc1nc(Nc2ccc3c(c2)CC(=O)N3)ncc1C(F)(F)F)S(C)(=O)=O [PF-562271],drug-dependent emergence of the GFRA2-high cell population,[3]; FAK inhibitor added to DT-treated MEL006 cells,diminished the drug-dependent emergence of the GFRA2-high cell population in a dose-dependent manner
CN1c2ccc([N+](=O)[O-])cc2N=C(c2ccc(C(=O)O)cc2)c2cc3c(cc21)C(C)(C)CCC3(C)C [HX531],effect on sensitivity of MM52 cells to trametinib,"MM052 melanoma cells; HX531 2 uM, trametinib 2 nM, colony assay 7 days, Cell Titer Glo 6 days",sensitized these cells to trametinib
same,drug-dependent induction of GFRA2-positive cells,[3]; in presence of IC50 concentrations of the BRAF and MEK-inhibitors,completely inhibited emergence of drug-dependent induction of GFRA2-positive cells

# From patent US20210010089A1, “TUMOR MINIMAL RESIDUAL DISEASE STRATIFICATION” (VIB VZW, priority 2018, published 2021)
